In patent US8575197B2, “Pyrolinone derivative and pharmaceutical composition comprising the same” (Shionogi & Co., Ltd., priority 2008, dated 2013) one finds IC50 data, which are given here for 64 compounds.

For orientation: IC50 means the point on the concentration scale where inhibition reaches its midpoint.

Sequence of human P2X3 receptor (P56373 whole entry): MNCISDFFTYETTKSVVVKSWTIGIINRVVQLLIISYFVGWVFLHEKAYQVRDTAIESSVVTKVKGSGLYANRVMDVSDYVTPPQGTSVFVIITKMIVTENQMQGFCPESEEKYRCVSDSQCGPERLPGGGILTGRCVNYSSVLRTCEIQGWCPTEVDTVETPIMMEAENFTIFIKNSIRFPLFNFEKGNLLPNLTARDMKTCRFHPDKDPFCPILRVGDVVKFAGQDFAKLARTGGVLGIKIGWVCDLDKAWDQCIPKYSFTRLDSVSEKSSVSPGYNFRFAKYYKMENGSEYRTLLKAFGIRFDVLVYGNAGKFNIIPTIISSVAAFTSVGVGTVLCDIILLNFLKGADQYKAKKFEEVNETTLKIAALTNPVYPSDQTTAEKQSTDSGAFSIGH

This assay deals with human P2X3 receptor (Homo sapiens (Human), UniProt P56373). In words: P2X3 receptor inhibition, ATP-evoked Fluo-3 calcium fluorescence (FDSS 3000). In kind it is cell-based. The conditions noted are these: C6BU-1 cell transfected with human P2X3 receptor gene; ATP-evoked Fluo-3 fluorescence. The gist of the method:
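C6BU-1 cells stably transfected with human P2X3, loaded with 4 μM Fluo-3-AM for 1 h at 37 °C in HEPES buffer pH 7.5 with probenecid. Compound added 5 min before 40 nM ATP solution; fluorescence followed 3 min. IC50 from ratio of peak post-ATP to baseline fluorescence.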
On to `Cc1cc(-c2ccc(N3C(=O)C(O)=C(C(=O)CC(C)C)C3c3ccccc3OC(F)(F)F)cc2)cs1` (stereo not shown) [Compound I-378], for which the IC50 is 192 nM.

As for `COc1ccccc1C1C(C(=O)CC(C)C)=C(O)C(=O)N1c1ccc(-c2csc(C)c2)cc1` (stereo not shown) [Compound I-379], the concentration for half-maximal inhibition (IC50) stood at 118 nM.

As for `COCc1ccccc1C1C(C(=O)CC(C)C)=C(O)C(=O)N1c1ccc(-c2ccc(C)o2)cc1` (stereo not shown) [Compound I-380], the IC50 is 7 nM.

Turning to `COCCOc1ccccc1C1C(C(=O)CC(C)C)=C(O)C(=O)N1c1ccc(-c2ccc(C)o2)cc1` (stereo not shown) [Compound I-381], the IC50 worked out at 7 nM.

Take `COCOc1ccccc1C1C(C(=O)CC(C)C)=C(O)C(=O)N1c1ccc(-c2ccc(C)o2)cc1` (stereo not shown) [Compound I-382]: the IC50 stood at 6 nM.

On to `COc1ccccc1C1C(C(=O)CC(C)C)=C(O)C(=O)N1c1ccc(-c2ccc(C)o2)cc1` (stereo not shown) [Compound I-383], for which the IC50 was 36 nM.

As for `Cc1ccc(-c2ccc(N3C(=O)C(O)=C(C(=O)CC(C)C)C3c3ccccc3OCCO)cc2)o1` (stereo not shown) [Compound I-384], the IC50 worked out at 19 nM.

With `COCc1ccccc1C1C(C(=O)C(C)C)=C(O)C(=O)N1c1ccc2sc(C)nc2c1` (stereo not shown) [Compound I-385], the IC50 was 227 nM.

With `COCCOc1ccccc1C1C(C(=O)CC(C)C)=C(O)C(=O)N1c1ccc(-c2coc(C)n2)cc1` (stereo not shown) [Compound I-391], the half-inhibitory concentration (IC50) came out at 684 nM.

`COCc1ccccc1C1C(C(=O)CC(C)C)=C(O)C(=O)N1c1ccc(-c2coc(C)n2)cc1` (stereo not shown) [Compound I-392]: the IC50 was found to be 946 nM.

As for `COCc1ccccc1[C@@H]1C(C(=O)C(C)C)=C(O)C(=O)N1c1ccc(-c2ccc(C)s2)cc1` [Compound I-393], the IC50 was 15 nM.

In the case of `COCc1ccccc1[C@@H]1C(C(=O)C(C)C)=C(O)C(=O)N1c1ccc(-c2cccs2)cc1` [Compound I-394], the IC50 was 11 nM.

`COCCOc1ncccc1[C@@H]1C(C(=O)C(C)C)=C(O)C(=O)N1c1ccc(-c2ccsc2)cc1` [Compound I-395]: the IC50 stood at 6 nM.

Regarding `Cc1ccc(-c2ccc(N3C(=O)C(O)=C(C(=O)C(C)C)C3c3ccccc3OC(C)C)cc2)o1` (stereo not shown) [Compound I-396], the 50% inhibitory concentration (IC50) was 7 nM.

For `Cc1ccc(-c2ccc(N3C(=O)C(O)=C(C(=O)C(C)C)C3c3ccccc3C(=O)N(C)C)cc2)o1` (stereo not shown) [Compound I-397], the 50% inhibitory concentration (IC50) was 122 nM.

Regarding `Cc1ccc(-c2ccc(N3C(=O)C(O)=C(C(=O)CC(C)C)C3c3ccccc3OC(C)C)cc2)o1` (stereo not shown) [Compound I-398], the IC50 stood at 14 nM.

In the case of `Cc1ccc(-c2ccc(N3C(=O)C(O)=C(C(=O)CC(C)C)C3c3ccccc3C(=O)N(C)C)cc2)o1` (stereo not shown) [Compound I-399], the concentration for half-maximal inhibition (IC50) came to 44 nM.

For `Cc1ccc(-c2ccc(N3C(=O)C(O)=C(C(=O)C(C)C)C3c3ccccc3OC(C)C)cc2)s1` (stereo not shown) [Compound I-400], the IC50 turned out to be 22 nM.

Regarding `Cc1ccc(-c2ccc(N3C(=O)C(O)=C(C(=O)C(C)C)C3c3ccccc3C(=O)N(C)C)cc2)s1` (stereo not shown) [Compound I-401], the IC50 is 79 nM.

Turning to `Cc1ccc(-c2ccc(N3C(=O)C(O)=C(C(=O)CC(C)C)C3c3ccccc3OC(C)C)cc2)s1` (stereo not shown) [Compound I-402], the IC50 is 80 nM.

For `Cc1cc(-c2ccc(N3C(=O)C(O)=C(C(=O)CC(C)C)C3c3ccccc3C(=O)N(C)C)cc2)cs1` (stereo not shown) [Compound I-404], the half-maximal inhibitory concentration (IC50) was found to be 71 nM.

In the case of `CC(C)CC(=O)C1=C(O)C(=O)N(c2ccc(-c3ccsc3)cc2)C1c1ccccc1C(=O)N(C)C` (stereo not shown) [Compound I-405], the concentration for half-maximal inhibition (IC50) turned out to be 31 nM.

As for `Cc1ccc(-c2ccc(N3C(=O)C(O)=C(C(=O)CC(C)C)C3c3ccccc3C(=O)N(C)C)cc2)s1` (stereo not shown) [Compound I-406], the IC50 amounted to 29 nM.

`CC(C)CC(=O)C1=C(O)C(=O)N(c2ccc(-c3ccoc3)cc2)C1c1ccccc1OC(C)C` (stereo not shown) [Compound I-408]: the half-inhibitory concentration (IC50) was 18 nM.

Consider `Cc1cc(-c2ccc(N3C(=O)C(O)=C(C(=O)C(C)C)C3c3ccccc3C(=O)N(C)C)cc2)cs1` (stereo not shown) [Compound I-409], for which the IC50 came out at 177 nM.

Take `COCCOc1ccccc1C1C(C(=O)CC(C)C)=C(O)C(=O)N1c1ccc(C2=NCCS2)cc1` (stereo not shown) [Compound I-410]: the concentration for half-maximal inhibition (IC50) came out at 151 nM.

`COc1ccccc1C1C(C(=O)CC(C)C)=C(O)C(=O)N1c1ccc(C2=NCCS2)cc1` (stereo not shown) [Compound I-412]: the IC50 turned out to be 310 nM.

As for `CC(C)CC(=O)C1=C(O)C(=O)N(c2ccc(C3=NCCS3)cc2)C1c1ccccc1OC(C)C` (stereo not shown) [Compound I-413], the IC50 stood at 42 nM.

For `COCc1ccccc1C1C(C(=O)CC(C)C)=C(O)C(=O)N1c1ccc(C2=NCCS2)cc1` (stereo not shown) [Compound I-414], the IC50 was determined as 268 nM.

Take `COc1ccccc1C1C(C(=O)C(C)C)=C(O)C(=O)N1c1ccc(-c2cscn2)cc1` (stereo not shown) [Compound I-416]: the IC50 came out at 322 nM.

Take `COCCOc1ccccc1C1C(C(=O)C(C)C)=C(O)C(=O)N1c1ccc(-c2cscn2)cc1` (stereo not shown) [Compound I-417]: the IC50 was 181 nM.

Regarding `COCc1ccccc1C1C(C(=O)C(C)C)=C(O)C(=O)N1c1ccc(-c2cscn2)cc1` (stereo not shown) [Compound I-418], the IC50 came out at 593 nM.

For `Cc1cc(-c2ccc(N3C(=O)C(O)=C(C(=O)C(C)C)C3c3ccccc3OC(C)C)cc2)cs1` (stereo not shown) [Compound I-419], the IC50 stood at 32 nM.

With `COc1ccccc1C1C(C(=O)CC(C)C)=C(O)C(=O)N1c1ccc(-c2cscn2)cc1` (stereo not shown) [Compound I-420], the IC50 worked out at 257 nM.

Turning to `COCCOc1ccccc1C1C(C(=O)CC(C)C)=C(O)C(=O)N1c1ccc(-c2cscn2)cc1` (stereo not shown) [Compound I-421], the IC50 came to 191 nM.

As to `COCc1ccccc1C1C(C(=O)CC(C)C)=C(O)C(=O)N1c1ccc(-c2cscn2)cc1` (stereo not shown) [Compound I-422], the IC50 turned out to be 361 nM.

Take `COCCOc1ccccc1C1C(C(=O)C(C)C)=C(O)C(=O)N1c1ccc(-c2csc(C)n2)cc1` (stereo not shown) [Compound I-424]: the IC50 is 519 nM.

With `COCc1ccccc1C1C(C(=O)C(C)C)=C(O)C(=O)N1c1ccc(-c2csc(C)n2)cc1` (stereo not shown) [Compound I-425], the 50% inhibitory concentration (IC50) worked out at 697 nM.

On to `COCCOc1ccccc1C1C(C(=O)CC(C)C)=C(O)C(=O)N1c1ccc(-c2csc(C)n2)cc1` (stereo not shown) [Compound I-427], for which the half-inhibitory concentration (IC50) is 331 nM.

`COCc1ccccc1C1C(C(=O)CC(C)C)=C(O)C(=O)N1c1ccc(-c2csc(C)n2)cc1` (stereo not shown) [Compound I-428]: the IC50 came to 399 nM.

Take `CC(C)C(=O)C1=C(O)C(=O)N(c2ccc(-c3ccsc3)cc2)C1c1ccccc1OCCCO` (stereo not shown) [Compound I-429]: the IC50 came to 7 nM.

Take `CC(C)CC(=O)C1=C(O)C(=O)N(c2ccc(-c3ccoc3)cc2)C1c1ccccc1C(=O)N(C)C` (stereo not shown) [Compound I-430]: the IC50 was 153 nM.

Regarding `COCCOc1ncccc1[C@H]1C(C(=O)C(C)C)=C(O)C(=O)N1c1ccc(-c2ccsc2)cc1` [Compound I-433], the IC50 is 425 nM.

For `COCCOc1ccccc1C1C(C(=O)CC(C)C)=C(O)C(=O)N1c1ccc(SC)cc1` (stereo not shown) [Compound I-435], the IC50 was 82 nM.

With `CSc1ccc(N2C(=O)C(O)=C(C(=O)CC(C)C)C2c2ccccc2OC(C)C)cc1` (stereo not shown) [Compound I-436], the half-inhibitory concentration (IC50) came out at 42 nM.

For `COCc1ccccc1C1C(C(=O)CC(C)C)=C(O)C(=O)N1c1ccc(SC)cc1` (stereo not shown) [Compound I-437], the half-inhibitory concentration (IC50) was determined as 111 nM.

Consider `Cc1nc(-c2ccc(N3C(=O)C(O)=C(C(=O)CC4CCCC4)C3C3CCCCC3)cc2)no1` (stereo not shown) [Compound I-438], for which the IC50 turned out to be 490 nM.

For the compound `COCc1ccccc1C1C(C(=O)CC2CCCC2)=C(O)C(=O)N1c1ccc(-c2ccsc2)cc1` (stereo not shown) [Compound I-439], the IC50 was 116 nM.

On to `CCOc1ncccc1C1C(C(=O)CC(C)C)=C(O)C(=O)N1c1ccc(-c2ccsc2)cc1` (stereo not shown) [Compound I-440], for which the IC50 is 35 nM.

`CCOc1ncccc1C1C(C(=O)C(C)C)=C(O)C(=O)N1c1ccc(-c2ccsc2)cc1` (stereo not shown) [Compound I-441]: the 50% inhibitory concentration (IC50) came to 13 nM.

With `CC(C)CC(=O)C1=C(O)C(=O)N(c2ccc(-c3ccsc3)cc2)C1c1ccccc1N1CCOCC1` (stereo not shown) [Compound I-442], the concentration for half-maximal inhibition (IC50) worked out at 5 nM.

As to `CC(C)C(=O)C1=C(O)C(=O)N(c2ccc(-c3ccsc3)cc2)C1c1ccccc1N1CCOCC1` (stereo not shown) [Compound I-443], the half-inhibitory concentration (IC50) came out at 6 nM.

For `Cc1nc(-c2ccc(N3C(=O)C(O)=C(C(=O)C(C)C)C3c3ccccc3OCCCO)cc2)no1` (stereo not shown) [Compound I-444], the IC50 stood at 172 nM.

For the compound `Cc1nc(-c2ccc(N3C(=O)C(O)=C(C(=O)CC(C)C)C3c3ccccc3OCCCO)cc2)no1` (stereo not shown) [Compound I-445], the IC50 came to 152 nM.

Consider `COCCOc1ccccc1C1C(C(=O)CC(C)C)=C(O)C(=O)N1c1ccc(SC(F)(F)F)cc1` (stereo not shown) [Compound I-446], for which the IC50 turned out to be 338 nM.

With `CC(C)CC(=O)C1=C(O)C(=O)N(c2ccc(SC(F)(F)F)cc2)C1c1ccccc1OC(C)C` (stereo not shown) [Compound I-447], the IC50 is 128 nM.

On to `COCc1ccccc1C1C(C(=O)CC(C)C)=C(O)C(=O)N1c1ccc(SC(F)(F)F)cc1` (stereo not shown) [Compound I-448], for which the IC50 was determined as 246 nM.

Take `CC(C)COc1ccccc1C1C(C(=O)C(C)C)=C(O)C(=O)N1c1ccc(-c2ccsc2)cc1` (stereo not shown) [Compound I-449]: the IC50 turned out to be 13 nM.

Consider `CC(C)COc1ccccc1C1C(C(=O)C(C)C)=C(O)C(=O)N1c1ccc(-c2ccon2)cc1` (stereo not shown) [Compound I-450], for which the IC50 was determined as 36 nM.

In the case of `Cc1nc(-c2ccc(N3C(=O)C(O)=C(C(=O)C(C)C)C3c3ccccc3OCC(C)C)cc2)no1` (stereo not shown) [Compound I-451], the 50% inhibitory concentration (IC50) was 19 nM.

As to `COc1ccc(F)cc1C1C(C(=O)C(C)C)=C(O)C(=O)N1c1ccc(-c2ccsc2)cc1` (stereo not shown) [Compound I-452], the IC50 worked out at 26 nM.

In the case of `COc1ccc(F)cc1C1C(C(=O)C(C)C)=C(O)C(=O)N1c1ccc(-c2csc(C)c2)cc1` (stereo not shown) [Compound I-453], the IC50 turned out to be 41 nM.

In the case of `COc1ccc(F)cc1C1C(C(=O)C(C)C)=C(O)C(=O)N1c1ccc(-c2ccc(C)o2)cc1` (stereo not shown) [Compound I-454], the half-maximal inhibitory concentration (IC50) was found to be 36 nM.

Take `COCc1ccccc1[C@@H]1C(C(=O)C(C)C)=C(O)C(=O)N1c1ccc(-c2csc(C)c2)cc1` [Compound I-455]: the IC50 was determined as 14 nM.
